The text below walks through data of US12466813B2, “PRC1 inhibitors and methods of treatment therewith” (The Regents of the University of Michigan, priority 2018, dated 2025).

For the assay, the target named is T1, RING1B-BMI1 (Homo sapiens, UniProt Q99496).
T1 sequence (Q99496 1-336): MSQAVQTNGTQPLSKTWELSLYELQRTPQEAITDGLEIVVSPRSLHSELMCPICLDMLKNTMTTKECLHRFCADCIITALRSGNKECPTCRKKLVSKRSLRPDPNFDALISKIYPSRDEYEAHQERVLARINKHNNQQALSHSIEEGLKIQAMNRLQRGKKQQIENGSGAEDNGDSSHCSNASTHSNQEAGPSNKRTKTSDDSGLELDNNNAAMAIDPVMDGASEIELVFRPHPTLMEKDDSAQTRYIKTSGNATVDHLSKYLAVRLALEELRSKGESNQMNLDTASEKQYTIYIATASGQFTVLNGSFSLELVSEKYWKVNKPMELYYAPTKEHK
T1 sequence (P35226 1-326 partner): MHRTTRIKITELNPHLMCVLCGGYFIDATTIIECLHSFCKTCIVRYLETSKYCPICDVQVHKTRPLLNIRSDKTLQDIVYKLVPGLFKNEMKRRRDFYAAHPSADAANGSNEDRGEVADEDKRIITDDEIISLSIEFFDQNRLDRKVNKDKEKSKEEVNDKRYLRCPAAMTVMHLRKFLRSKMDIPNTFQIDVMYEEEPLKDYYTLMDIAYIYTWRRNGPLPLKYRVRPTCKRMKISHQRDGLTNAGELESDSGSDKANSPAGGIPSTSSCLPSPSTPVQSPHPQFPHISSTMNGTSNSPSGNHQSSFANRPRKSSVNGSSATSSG
The experiment in a line: KD classes of Table A (direct binding to Ring1B-Bmi1). The following applies: class given in Table A. As for the experimental part: Experiments were conducted during development of embodiments herein to develop small molecule inhibitors of PRC1 by targeting the Ring1B-BMI1 E3 ligase. These compounds bind directly to Ring1B-Bmi1 with low-micromolar affinity and inhibit PRC1 in vitro and in cells. […] Experiments were conducted during development of embodiments herein to test COMPOUND 1 in leukemia stem cell models represented by TEX cells (Ref. 22; herein incorporated by reference in its entirety) and M9-ENL1 cells (Ref. 23; herein incorporated by reference in its entirety). […] In some embodiments, COMPOUND 1 and COMPOUND 1 analogs are find use as agents in targeting leukemia and other cancer stem cells.
The compounds listed in Table A have been synthesized and/or tested for activity in inhibiting activity of PRC1 complex, and are within the scope herein.

With `CCc1c(-c2c(OC)cccc2OC)[nH]c(C(=O)O)c1-c1ccc(OC)cc1Cl` [compound 104], the Kd (commonly the free concentration of one partner at which half of the binding sites on the other are occupied at equilibrium, for simple one-to-one binding) is greater than 100 µM.

Take `CCc1c(-c2cccc3c2ccn3C)[nH]c(C(=O)O)c1-c1ccccc1` [compound 101]: the Kd was 50 to 100 µM.

On to `C#CCCCCC(=O)NCCn1ccc2c(-c3c(C(=O)O)[nH]c(-c4cc(F)cc5[nH]ccc45)c3C(C)C)cccc21` [compound 66], for which the Kd is less than 20 µM.

With `CC(C)c1c(-c2cc(F)cc3[nH]ccc23)[nH]c(C(=O)O)c1-c1cc(C(=O)O)cc2[nH]ccc12` [compound 197], the Kd was less than 20 µM.

`CCc1c(C(=O)O)[nH]c(-c2cccc3[nH]ccc23)c1CC` [compound 112] returned a Kd greater than 100 µM.

Regarding `CC(C)c1c(-c2cc(F)cc3[nH]ccc23)[nH]c(C(=O)O)c1-c1ccnc2[nH]c(-c3ccsc3)cc12` [compound 250], the Kd was less than 20 µM.

Turning to `CC(C)c1c(-c2cc(F)cc3[nH]ccc23)[nH]c(CCS(N)(=O)=O)c1-c1cccc2[nH]ccc12` [compound 221], the Kd is less than 20 µM.

Take `CC(C)CCOc1cc(-c2c(C(=O)O)[nH]c(-c3cc(F)cc4[nH]ccc34)c2C(C)C)c2cc[nH]c2c1` [compound 196]: the Kd was less than 20 µM.

With `COc1cccc(-c2c(C(=O)O)[nH]c(-c3cc(F)cc4[nH]ccc34)c2C(C)C)c1Cl` [compound 57, 3-(2-chloro-3-methoxyphenyl)-5-(6-fluoro-1H-indol-4-yl)-4-isopropyl-1H-pyrrole-2-carboxylic acid], the Kd was less than 20 µM.

Regarding `COc1cc(-c2c(C(=O)O)[nH]c(-c3cc(F)cc4[nH]ccc34)c2C(C)C)c2cc(C(=O)O)[nH]c2c1` [compound 50], the Kd is less than 20 µM.

Compound `CC(C)c1c(-c2cc(F)cc3[nH]ccc23)[nH]c(CCC(=O)O)c1-c1cccc2[nH]ccc12` [compound 216] registered an equilibrium dissociation constant (Kd) of less than 20 µM.

On to `Cc1c[nH]c2cccc(-c3[nH]c(C(=O)O)c(-c4c(Cl)ccc5[nH]ccc45)c3C(C)C)c12` [compound 26], for which the Kd was less than 20 µM.

`CC(C)c1c(-c2cc(F)cc3[nH]ccc23)[nH]c(S(C)(=O)=O)c1-c1cccc2[nH]ccc12` [compound 218] had a Kd of less than 20 µM.

Turning to `CC(C)c1c(-c2cc(F)cc3[nH]ccc23)[nH]c(C(=O)O)c1-c1cc(C(=O)NCc2nccs2)cc2[nH]ccc12` [compound 200], the Kd was less than 20 µM.

`CCC(C)c1c(-c2cc(F)cc3[nH]ccc23)[nH]c(C(=O)O)c1-c1cc(OC)cc2[nH]ccc12` (stereo not shown) [compound 171] yielded a Kd of less than 20 µM.

For `CC(C)c1c(-c2cc(F)cc3[nH]ccc23)[nH]c(C(=O)O)c1-c1cccc2[nH]c(-c3nccs3)cc12` [compound 224], the Kd is less than 20 µM.

`CCc1c(-c2cccc3c2ccn3C)[nH]c(C(=O)O)c1-c1ccccc1Cl` [compound 88] had a Kd of 20 to 50 µM.

Turning to `CCc1c(-c2cccc3[nH]ccc23)[nH]c(C(=O)O)c1-c1cccc2c1ccn2CCO` [compound 77], the Kd was in the range of 20 to 50 µM.

`CCc1c(-c2cccc3[nH]ccc23)[nH]c(C(=O)O)c1-c1cccc(C)c1` [compound 99] displayed a Kd of 50 to 100 µM.

Regarding `COc1cc(-c2c(C(=O)O)[nH]c(-c3cc(F)cc4[nH]ccc34)c2C2CCCC2)c2cc[nH]c2c1` [compound 173], the Kd is less than 20 µM.

`NCCn1ccc2c(-c3ccc(C(=O)O)[nH]3)cccc21` [compound 153] came in with a Kd greater than 100 µM.

As for `CC(C)c1c(-c2cc(F)cc3[nH]ccc23)[nH]c(C(=O)O)c1-c1cccc2[nH]c(-c3cc[nH]n3)cc12` [compound 258], the Kd is less than 20 µM.

Compound `Nc1ccccc1-c1ccc(C(=O)O)[nH]1` [compound 147] came in with a Kd greater than 100 µM.

`CCc1c(-c2cccc3[nH]ccc23)[nH]c(C(=O)O)c1-c1cnccc1Cl` [compound 94] had a Kd of 50 to 100 µM.

Compound `O=C(O)c1ccc(-c2cccc3[nH]ncc23)[nH]1` [compound 126] came in with a Kd greater than 100 µM.

`CCc1c(-c2cccc3[nH]ccc23)[nH]c(C(=O)O)c1-c1c(Cl)cc(OC)c2[nH]ccc12` [compound 18]: the Kd is less than 20 µM.

With `CCc1c(-c2cccc3[nH]ccc23)[nH]c(C(=O)O)c1-c1ccccc1C(F)(F)F` [compound 82], the Kd was 20 to 50 µM.

In turn, `CSCc1ccc2[nH]ccc2c1-c1c(C(=O)O)[nH]c(-c2cc(F)cc3[nH]ccc23)c1C(C)C` [compound 238] yielded an equilibrium dissociation constant (Kd) of less than 20 µM.

For `O=C(O)c1ccc(-c2ccc(-c3ccccc3)cc2)s1` [compound 159], the Kd is greater than 100 µM.

In turn, `CCc1c(C(=O)O)[nH]c(-c2cccc3[nH]ccc23)c1-c1ccccc1` [compound 113] showed a Kd greater than 100 µM.

Compound `COc1ccc(OC)c(-c2ccc(C(=O)O)[nH]2)c1` [compound 155] showed a Kd greater than 100 µM.

In the case of `CC(C)c1c(-c2cc(F)cc3[nH]ccc23)[nH]c(C(=O)O)c1-c1ccc2c3c1ccn3CCO2` [compound 213], the Kd is less than 20 µM.

Regarding `CC(C)c1c(-c2cccc3[nH]ccc23)c(C(=O)O)n2c1-c1cc(F)cc3ccn(c13)[C@@H](C)C2` [compound 271], the Kd is less than 20 µM.

`CCc1c(-c2cccc3[nH]ccc23)[nH]c(C(=O)O)c1-c1cc([N+](=O)[O-])ccc1Cl` [compound 81] returned a Kd of 20 to 50 µM.

In turn, `CC(C)c1c(-c2cc(F)cc3[nH]ccc23)[nH]c(CC(=O)O)c1-c1cccc2[nH]ccc12` [compound 215] gave a Kd of less than 20 µM.

The compound `COc1ccc(-c2c(C(=O)O)[nH]c(-c3cccc4[nH]ccc34)c2C(C)C)c(Cl)c1` [compound 19] came in with a Kd of less than 20 µM.

Compound `CCc1cc(-c2c(C(=O)O)[nH]c(-c3cc(F)cc4[nH]ccc34)c2C(C)C)c2cc[nH]c2c1` [compound 45] registered a Kd of less than 20 µM.

In the case of `CCCc1c(-c2cccc3[nH]ccc23)[nH]c(C(=O)O)c1-c1ccccc1Cl` [compound 95], the Kd fell in the range of 50 to 100 µM.

In the case of `CC(C)c1c(-c2cc(F)cc3[nH]ccc23)[nH]c(C(=O)O)c1-c1ccnc2[nH]ccc12` [compound 74], the Kd is less than 20 µM.

Compound `O=C(O)c1ccc(-c2ccccc2Oc2ccccc2)[nH]1` [compound 136] had a Kd greater than 100 µM.

`O=C(O)c1ccc(-c2cccc3[nH]ccc23)[nH]1` [compound 134] showed a Kd greater than 100 µM.

For `CC(C)c1c(-c2cccc3[nH]c(CO)cc23)[nH]c(C(=O)O)c1-c1c(Cl)ccc2[nH]ccc12` [compound 52], the Kd was less than 20 µM.

As to `CC(C)c1c(-c2cc(F)cc3[nH]ccc23)[nH]c(C(=O)O)c1-c1ccnc2[nH]c(C3=CCNCC3)cc12` [compound 255], the Kd was less than 20 µM.

For `CC(C)c1c(-c2cc(F)cc3[nH]ccc23)[nH]c(C(=O)O)c1-c1c(F)cnc2[nH]ccc12` [compound 246], the Kd was less than 20 µM.

In turn, `COc1ccc(-c2c(C(=O)O)[nH]c(-c3cc(F)cc4[nH]ccc34)c2C(C)C)c2cc[nH]c12` [compound 37] came in with a Kd of less than 20 µM.

As to `O=C(O)c1[nH]c(-c2cccc3[nH]ccc23)c(C2CC2)c1-c1cccc2[nH]ccc12` [compound 29], the Kd is less than 20 µM.

Take `CC(C)c1c(-c2cc(F)cc3[nH]cc(CCO)c23)[nH]c(C(=O)O)c1-c1c(Cl)ccc2[nH]ccc12` [compound 28]: the Kd was less than 20 µM.

The compound `Cc1cc(C(=O)O)[nH]c1-c1cccc2[nH]ccc12` [compound 121] registered a Kd greater than 100 µM.

As for `COc1cc(OC)cc(-c2ccc(C(=O)O)[nH]2)c1` [compound 133], the Kd was greater than 100 µM.
